Among the data in ChEMBL document CHEMBL4823314, “Design, synthesis and biological evaluation of novel acridine and quinoline derivatives as tubulin polymerization inhibitors with anticancer activities” (Bioorg Med Chem, 2021) are IC50 values, retold here.

The structures appear in SMILES notation.

The term IC50 denotes the point on the concentration scale where inhibition reaches its midpoint.

One experiment concerns MCF7. The experiment can be described thus: cells. The following applies: Homo sapiens, MCF7, 48 h.
The next experiment has as its system HeLa. The experiment can be described thus: cells. The following applies: Homo sapiens, 48 h.
The next experiment relates to HepG2. The experiment can be described thus: Antiproliferative activity against human HepG2 cells assessed as reduction in cell viability measured after 48 hrs by MTT assay. The experiment is classed as functional, cell-based. The note with it: HepG2, 48 h. Background: Tetrazolium assays rely on reduction of a dye to a coloured formazan, in cell work by metabolically active cells.

Another experiment relates to B16-F10. The experiment can be described thus: Antiproliferative activity against mouse B16-F10 cells assessed as reduction in cell viability measured after 48 hrs by MTT assay. The following applies: B16-F10, 48 h. The format is functional, cell-based.

Description for HeLa: Antiproliferative activity against human HeLa cells assessed as reduction in cell viability measured after 48 hrs by MTT assay
Description for MCF7: Antiproliferative activity against human MCF7 cells assessed as reduction in cell viability measured after 48 hrs by MTT assay

For the compound `COc1ccc2nc3cc(Cl)ccc3c(N(C)c3cc(OC)c(OC)c(OC)c3)c2c1`, the half-inhibitory concentration (IC50) came to 3.13 µM in the experiment with MCF7, 4.01 µM in the experiment on HeLa, 2.83 µM with HepG2 and 3.79 µM in the experiment with B16-F10.
Turning to `COc1cc(Nc2cccc3ncccc23)cc(OC)c1OC`, the IC50 in the experiment with MCF7 was determined as 1.14 µM; in the experiment with HeLa, 2.8 µM; with HepG2, 0.783 µM; in the experiment on B16-F10, 1.28 µM.
On the same counts, the results for `CCCCN(c1ccc(OC)cc1)c1ccnc(C)c1` are 22.5 µM, 19.7 µM, 18.7 µM and 20.2 µM.
Regarding `CN(c1ccc(F)c(Cl)c1)c1cccc2ncccc12`, the IC50 in the experiment with MCF7 was 23.6 µM; in the experiment with HeLa it was 30.9 µM; with HepG2, 20.1 µM; in the experiment on B16-F10, 25.5 µM.
`COc1cc(Nc2ccnc(C)n2)cc(OC)c1OC`: the IC50 came out at 11.5 µM with MCF7, 10.6 µM in the experiment with HeLa, 8.18 µM in the experiment on HepG2 and 10 µM in the experiment with B16-F10.
On the same counts, the results for `c1ccc(Nc2cccc3ncccc23)cc1` are 26.4 µM, 30.7 µM, 26.8 µM and 28.6 µM.
On the same counts, the results for `COc1ccc(N(C)c2ccnc3cc(Cl)ccc23)cc1` are 4.42 µM, 2.67 µM, 0.939 µM and 1.38 µM.
On the same counts, the results for `CN(c1ccccc1)c1cccc2ncccc12` are 20.4 µM, 24 µM, 16 µM and 18.1 µM.
As for `Fc1ccc(Nc2cccc3ncccc23)cc1Cl`, the half-maximal inhibitory concentration (IC50) in the experiment on MCF7 worked out at 36.4 µM; in the experiment on HeLa it was 44.9 µM; in the experiment on HepG2, 32.1 µM; with B16-F10, 38.1 µM.
On the same counts, the results for `COc1ccc(N(C)c2c3ccc(Cl)cc3nc3ccc(OC)cc23)cc1` are 7.77 µM, 8.95 µM, 7.24 µM and 8.05 µM.
Turning to `CCCCN(c1ccccc1)c1cccc2ncccc12`, the IC50 in the experiment on MCF7 came out at 20 µM; with HeLa it was 29.9 µM; in the experiment with HepG2, 22.1 µM; in the experiment on B16-F10, 27.1 µM.
On the same counts, the results for `CCCCN(c1ccc(F)c(Cl)c1)c1cccc2ncccc12` are 33.8 µM, 32.1 µM, 26.7 µM and 29.5 µM.
With `CCCCN(c1cc(OC)c(OC)c(OC)c1)c1ccnc(C)n1`, the IC50 with MCF7 was 20.2 µM; in the experiment on HeLa it was 17 µM; with HepG2, 16.8 µM; in the experiment with B16-F10, 19.3 µM.
In the case of `CCCCN(c1ccnc(C)c1)c1cc(OC)c(OC)c(OC)c1`, the IC50 in the experiment with MCF7 was 17.3 µM; with HeLa, 16.8 µM; in the experiment on HepG2 it was 15.6 µM; in the experiment on B16-F10 it was 18.4 µM.
On the same counts, the results for `CCCCN(c1ccc(C#N)cc1)c1cccc2ncccc12` are 29.7 µM, 42.9 µM, 30.1 µM and 33.1 µM.
On the same counts, the results for `COc1cc(N(C)c2ccnc(C)c2)cc(OC)c1OC` are 15.3 µM, 14.1 µM, 18.6 µM and 22.5 µM.
In the case of `CCCCN(c1ccc(OC)cc1)c1cccc2ncccc12`, the concentration for half-maximal inhibition (IC50) in the experiment on MCF7 was found to be 3.78 µM; with HeLa, 3.06 µM; in the experiment on HepG2 it was 1.37 µM; in the experiment on B16-F10 it was 2.43 µM.
On the same counts, the results for `CCCCN(c1cc(OC)c(OC)c(OC)c1)c1c2ccccc2nc2ccccc12` are 4.44 µM, 5.3 µM, 3.55 µM and 4.68 µM.
On the same counts, the results for `COc1cc(Nc2ccnc(C)c2)cc(OC)c1OC` are 13.3 µM, 16.1 µM, 11.4 µM and 18.9 µM.
On the same counts, the results for `COc1cc(Nc2c3ccccc3nc3ccccc23)cc(OC)c1OC` are 5.67 µM, 6.8 µM, 4.46 µM and 6.54 µM.
With `COc1ccc(N(C)c2ccnc(C)c2)cc1`, the half-maximal inhibitory concentration (IC50) stood at 13.3 µM with MCF7, 18.7 µM in the experiment with HeLa, 15.5 µM in the experiment with HepG2 and 15.4 µM with B16-F10.
Consider `COc1ccc(Nc2c3ccccc3nc3ccccc23)cc1`, for which the 50% inhibitory concentration (IC50) in the experiment on MCF7 came out at 1.23 µM; in the experiment with HeLa, 3.67 µM; with HepG2 it was 1.47 µM; with B16-F10, 2.14 µM.
On the same counts, the results for `COc1cc(N(C)c2ccnc3cc(Cl)ccc23)cc(OC)c1OC` are 14.3 µM, 16.1 µM, 11.4 µM and 13.3 µM.
On the same counts, the results for `CCCCN(c1ccc(OC)cc1)c1c2ccc(Cl)cc2nc2ccc(OC)cc12` are 9.06 µM, 9.82 µM, 8.16 µM and 9.04 µM.
On the same counts, the results for `COc1cc(N(C)c2cccc3ncccc23)cc(OC)c1OC` are 6.36 µM, 8.27 µM, 5.24 µM and 6.58 µM.
`COc1ccc(N(C)c2c3ccccc3nc3ccccc23)cc1`: the IC50 in the experiment on MCF7 amounted to 5.17 µM; in the experiment on HeLa it was 6.49 µM; in the experiment with HepG2, 4.18 µM; with B16-F10, 5.78 µM.
As to `COc1ccc(Nc2c3ccc(Cl)cc3nc3ccc(OC)cc23)cc1`, the IC50 with MCF7 came to 5.17 µM; in the experiment on HeLa, 7.2 µM; in the experiment on HepG2 it was 3.19 µM; with B16-F10, 4.98 µM.
On the same counts, the results for `COc1ccc(Nc2ccnc(C)c2)cc1` are 21.1 µM, 21 µM, 14.8 µM and 16.6 µM.
On the same counts, the results for `N#Cc1ccc(Nc2cccc3ncccc23)cc1` are 35.6 µM, 43.2 µM, 37.5 µM and 40.4 µM.
On the same counts, the results for `COc1ccc(N(C)c2ccnc(C)n2)cc1` are 5.32 µM, 6.12 µM, 1.4 µM and 4.06 µM.
Turning to `COc1cc(N(C)c2c3ccccc3nc3ccccc23)cc(OC)c1OC`, the IC50 worked out at 2.03 µM in the experiment with MCF7, 2.7 µM in the experiment on HeLa, 1.81 µM in the experiment with HepG2 and 1.39 µM with B16-F10.
On the same counts, the results for `CCCCN(c1ccc(OC)cc1)c1c2ccccc2nc2ccccc12` are 7.11 µM, 8.65 µM, 3.44 µM and 6.45 µM.
On the same counts, the results for `COc1ccc2nc3cc(Cl)ccc3c(Nc3cc(OC)c(OC)c(OC)c3)c2c1` are 6.6 µM, 8.07 µM, 5.23 µM and 6.97 µM.
On the same counts, the results for `COc1ccc(Nc2ccnc(C)n2)cc1` are 12.5 µM, 13.6 µM, 6.78 µM and 10.6 µM.
Turning to `CCCCN(c1ccc(OC)cc1)c1ccnc(C)n1`, the IC50 in the experiment on MCF7 was found to be 9.38 µM; in the experiment with HeLa it was 8.61 µM; in the experiment with HepG2 it was 6.71 µM; in the experiment with B16-F10, 9.06 µM.
On the same counts, the results for `COc1cc(Nc2ccnc3cc(Cl)ccc23)cc(OC)c1OC` are 9.27 µM, 8.65 µM, 6.82 µM and 7.22 µM.
